The results in this text go back to patent US20130296347A1, “Compositions and Methods for Prophylaxis and Treatment of Addictions” (Omeros Corporation, priority 2007, published 2013).

Experiment [1] concerns CD mice. Put plainly: Tail-flick test, morphine-induced analgesic tolerance. The format is in vivo, mouse. Conditions: morphine 30 mg/kg IP twice a day. The method, then:
All procedures were conducted in adherence to the European Community Council Directive for Care and Use of Laboratory Animals.
Mice were divided into 6 groups. Group 1 (n=8) received drug vehicles (veh/veh). […] Animals were treated twice daily (between 9:00 and 10:00 a.m. and 9:00 and 10:00 p.m.).
Morphine hydrochloride was purchased from Salars (Milano, Italy). Morphine (30 mg/kg) was dissolved in NaCl […] and was injected intraperitoneally (IP) twice a day at the indicated doses in a volume of 0.2 ml per mice. […] It was dissolved in distilled water and was administered per o.s. at the doses of 10 mg/kg and 30 mg/kg in a volume of 0.6 ml per mice.
Two different tests were used to monitor analgesic responses. The tail-flick test was performed 45 min after the morning injection of morphine, and the tail-immersion test was performed 45 min after the evening injection of morphine.
For the tail-flick test, each mouse was gently restrained in a soft tissue pocket, and the tail (1 cm from the tip) was exposed to a hot light beam. Latency for tail-flick was measured with a 6 seconds cut-off time. For the tail-immersion test, each mouse was restrained in a soft tissue pocket, and the distal half of the tail dipped into a water bath set at 52 C°. Latency for removing the tail from the hot water was measured with a 10 seconds cut-off time.
A general note: Hot-plate and tail-flick tests time the reaction to a heat stimulus.

Experiment [2] concerns CD mice. Conditions: morphine 30 mg/kg IP twice a day.
Procedure: Morphine hydrochloride was purchased from Salars (Milano, Italy). Morphine (30 mg/kg) was dissolved in NaCl 9% and was injected intraperitoneally (IP) twice a day at the indicated doses in a volume of 0.2 ml per mice.

On to `CN1CC[C@]23c4c5ccc(O)c4O[C@H]2[C@@H](O)C=C[C@H]3[C@H]1C5` [morphine], for which, in the experiment on CD mice [1], the “time to tail-flick on test days 7 and 9” value was “non significant difference from controls”. In addition, in the experiment on CD mice [1] (p<0.01), the “time to tail-flick on day 1, 3 and 5” value is reported as “significantly increased”. The “tail-immersion analgesic effect on test day 9” value with CD mice [2] was “marginally significant”. Further, in the experiment on CD mice [2] (p<0.01), the “tail-immersion latency on day 1, 3, 5, and 7” value was “significantly increased”.
